ChEMBL document CHEMBL4387751, “Development of substituted pyrido[3,2-d]pyrimidines as potent and selective dihydrofolate reductase inhibitors for pneumocystis pneumonia infection” (Bioorg Med Chem Lett, 2019)

Experiments:
[1] = Inhibition of Pneumocystis jirovecii DHFR expressed in Escherichia coli Rosetta-gami B (DE3) assessed as reduction in consumption of NADPH using 9 uM DHFA as substrate
[2] = biological target: T1, Dihydrofolate reductase (Homo sapiens, UniProt P00374); assay: Inhibition of recombinant human DHFR assessed as reduction in consumption of NADPH using 9 uM DHFA as substrate
T1 sequence (P00374 whole entry): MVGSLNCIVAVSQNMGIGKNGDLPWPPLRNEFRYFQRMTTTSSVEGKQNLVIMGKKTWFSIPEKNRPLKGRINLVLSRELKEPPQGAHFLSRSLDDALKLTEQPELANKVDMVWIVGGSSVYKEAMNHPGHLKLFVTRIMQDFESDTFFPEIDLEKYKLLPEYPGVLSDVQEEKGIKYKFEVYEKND

[3] = test system: DHFR (human versus Pneumocystis jirovecii); assay: Selectivity ratio of IC50 for inhibition of recombinant human DHFR using 9 uM DHFA as substrate to IC50 for inhibition of Pneumocystis jirovecii DHFR using 9 uM DHFA as substrate; format: toxicity; conditions: recombinant human DHFR and Pneumocystis jirovecii DHFR, probe DHFA (substrate), read-out: Ratio IC50
[4] = Inhibition of Pneumocystis jirovecii DHFR expressed in Escherichia coli Rosetta-gami B (DE3) assessed as reduction in consumption of NADPH using 18 uM DHFA as substrate
[5] = test system: DHFR (human versus Pneumocystis jirovecii); assay: Selectivity ratio of IC50 for inhibition of recombinant human DHFR using 18 uM DHFA as substrate to IC50 for inhibition of Pneumocystis jirovecii DHFR using 18 uM DHFA as substrate; format: toxicity; conditions: recombinant human DHFR and Pneumocystis jirovecii DHFR, probe DHFA (substrate), read-out: Ratio IC50
[6] = biological target: T2, Dihydrofolate reductase (Rattus norvegicus, UniProt Q920D2); assay: Inhibition of rat liver DHFR assessed as reduction in consumption of NADPH using DHFA as substrate
T2 sequence (Q920D2 whole entry): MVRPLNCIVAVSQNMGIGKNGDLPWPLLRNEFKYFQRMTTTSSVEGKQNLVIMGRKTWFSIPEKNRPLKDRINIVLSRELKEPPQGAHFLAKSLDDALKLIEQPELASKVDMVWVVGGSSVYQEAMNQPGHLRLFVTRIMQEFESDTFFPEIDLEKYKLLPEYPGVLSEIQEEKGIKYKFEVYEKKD

[7] = Inhibition of Pneumocystis carinii DHFR expressed in Escherichia coli Rosetta-gami B (DE3) assessed as reduction in consumption of NADPH using DHFA as substrate

Compound	IC50 [1] [nM]	IC50 [2] [nM]	selectivity ratio [3]	IC50 [4] [nM]	further results
Nc1nc(N)c2nc(Nc3ccc4ccccc4c3)ccc2n1	275	3180	12		
Nc1nc(N)c2nc(Nc3ccccc3)ccc2n1	122	1530	13		
COc1ccc(Nc2ccc3nc(N)nc(N)c3n2)cc1	239	2460			
Nc1nc(N)c2cc(Nc3ccccc3)cnc2n1				300	selectivity ratio [5]: < 1
COc1ccc(Nc2cnc3nc(N)nc(N)c3c2)cc1				400	
Cc1ccc(Nc2cnc3nc(N)nc(N)c3c2)cc1				620	selectivity ratio [5]: 3
Nc1nc(N)c2cc(Nc3ccc4ccccc4c3)cnc2n1				400	selectivity ratio [5]: 5
Nc1nc(N)c2cc(Nc3cccc4ccccc34)cnc2n1				250	selectivity ratio [5]: 8
Nc1nc(N)c2cc(Nc3cc(F)c(F)c(F)c3)cnc2n1				870	selectivity ratio [5]: 4
COc1ccc(OC)c(NCc2cnc3nc(N)nc(N)c3c2)c1					IC50 [6]: 500 nM
CCCCN(c1ccccc1)c1ccc2nc(N)nc(N)c2n1	66				
Nc1nc(N)c2nc(Nc3cccc4ccccc34)ccc2n1	112	1100	10		
Cc1ccc(Nc2ccc3nc(N)nc(N)c3n2)cc1	174	2630	15		
Nc1nc(N)c2nc(Nc3ccc(F)c(F)c3)ccc2n1	80	2250	28		
Nc1nc(N)c2nc(Nc3cc(F)c(F)c(F)c3)ccc2n1	155		12		
CCN(c1ccccc1)c1ccc2nc(N)nc(N)c2n1	150				
Nc1nc(N)c2nc(Nc3ccc(O)cc3)ccc2n1	150	1580	10		
COc1ccc(OC)c(NCc2ccc3nc(N)nc(N)c3n2)c1					IC50 [7]: 1400 nM
COc1cc(NCc2ccc3nc(N)nc(N)c3c2C)cc(OC)c1OC [TRIMETREXATE]				2.1	
